Source: patent publication US20260116910A1, “POLYCYCLIC COMPOUNDS AND METHODS THEREOF” (HEPAITECH (BEIJING) BIOPHARMA TECHNOLOGY CO., LTD., priority 2021, published 2026)
Where two headings read alike, the source gives them in different places.

Assays:
human FXR (NR1H4) = target: T1, human FXR (NR1H4) (Homo sapiens, UniProt Q96RI1); experiment: Human FXR (NR1H4) agonist assessment, FXRE-NanoLuc reporter in HEK293T cells; type: cell-based; settings: for EC50: read-out: EC50
T1 sequence (Q96RI1 1-476 isoform Q96RI1-1): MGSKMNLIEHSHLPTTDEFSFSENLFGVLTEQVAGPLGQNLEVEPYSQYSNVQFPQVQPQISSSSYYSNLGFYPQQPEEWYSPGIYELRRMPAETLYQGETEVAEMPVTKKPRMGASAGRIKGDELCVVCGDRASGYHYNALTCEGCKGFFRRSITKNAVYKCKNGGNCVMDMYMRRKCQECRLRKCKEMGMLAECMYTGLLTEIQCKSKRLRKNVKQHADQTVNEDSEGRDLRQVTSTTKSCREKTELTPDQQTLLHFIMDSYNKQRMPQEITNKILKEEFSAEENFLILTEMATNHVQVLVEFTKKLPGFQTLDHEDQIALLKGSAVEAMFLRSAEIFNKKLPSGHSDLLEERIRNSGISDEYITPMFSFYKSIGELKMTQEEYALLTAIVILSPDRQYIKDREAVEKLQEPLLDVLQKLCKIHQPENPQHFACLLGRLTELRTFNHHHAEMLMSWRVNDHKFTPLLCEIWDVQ
Procedure: As those skilled in the art appreciate, various technologies are available for assessment of FXR activation in accordance with the present disclosure. […] Human FXR (NR1H4) agonist assessment (see, e.g., Yu et al. eLife 2019; 8: e48431): HEK293T cells stably expressing human FXR and containing FXR response element (FXRE)-NanoLuc reporter were cultured in DMEM medium supplemented with 10% FBS and 1% PS, at 37° C. in a humidified atmosphere with 5% CO2. Cells were detached by centrifuging (1000 rpm, 3 min). The pellet was re-suspended in medium, and cell density was adjusted to about 1×10^6 cells/mL. 100 μL suspension was seeded to each well of a white-walled, clear-bottom 96-well microplates (cell plate). Cells in microplates were cultured overnight.
In the following day, cells were grown to higher than 95% density in each well. Culture medium was replaced, and compounds were added to the wells. 0.01% DMSO (v/v) served as negative control. Plates were incubated at 37° C. in 5% CO2 for 24 hr.
In the following day, a 10 μL aliquot of cell culture medium was removed from each well and combined with 40 μL culture medium plus […] assay buffer (containing 20 mM of the luciferase substrate coelenterazine). After 5 min incubation, luminescence was measured using an EnVision plate reader (PerkinElmer).
In some embodiments, gradient diluted solutions of several concentrations were used to treat cells and corresponding responses were used to fit sigmoid function and to derive EC50 in Origin.

MRGPRX4 = MRGPRX4 (Homo sapiens, UniProt Q96LA9); experiment: MRGPRX4 activation, Fluo-8 Ca2+ FLIPR assay in HEK293T cells stably expressing MRGPRX4; type: cell-based; settings: for EC50: MRGPRX4 activation, Ca2+ fluorescence, no activation in tested range reported as III, read-out: Activity (EC50 μM)
Procedure: In some embodiments, cells were cultured in poly-D-Lys coated blacked walled, clear-bottom 96-well microplates. HEK293T cells stably expressing MRGPRX4 were cultured in DMEM medium supplemented with 10% FBS and 1% PS, at 37° C. in a humidified atmosphere with 5% CO2. Cells were detached by centrifuging (1000 rpm, 3 min). The pellet was re-suspended in medium, and cell density was adjusted to about 1×10^6 cells/mL. 100 μL suspension was seeded to each well of a microplates (cell plate). Cells in the microplates were cultured overnight. In the following day, cells were grown to higher than 95% density in each well.
Ca^2+ fluorescent dye loading: Fluo-8 AM (Screen Quest Fluo-8 AM Calcium Assay Kit, AAT Bioquest, cat. #: 21083) was diluted in HHBS buffer and adjusted to 2 μM (dye buffer). Medium in each well was changed into 50 μL dye buffer carefully. After incubation for 40-60 min under room temperature, the dye buffer was changed into 50 μL HHBS buffer.
The concentration of solution should be determined according to the protocol settings and experimental needs (e.g., Log[M]=−4, −5, −6, −7, −8, and −9). Prepare 2× serial dilution series of compounds (at least 75 μL per well).
A fluorescent signal baseline was measured using FLIPR®Tetra for 30 s. Then 50 μL of the chemical solution would be added to the cell plate. The fluorescent signal would be measured for another 150 s.
Activity of each compound was calculated by the fluorescence change (dF/F0). Curves were fitted to obtain EC50 values. In some embodiments, at least 3 repeats were performed to obtain the average values. For assessment of a compound, gradient diluted solutions of different concentrations were used to treat cells and corresponding responses were used to fit sigmoid function and to derive EC50 in Origin. In some embodiments, assessed concentrations were or included about 10^−4, 10^−4.5, 10^−5, 10^−5.5, 10^−6, 10^−6.5, 10^−7, 10^−8, and/or 10^−9 M; for example, in many instances, assessed concentrations included about 10^−5, 10^−6, 10^−7 and 10^−8 M. In some embodiments, assessed concentrations were about 10^−4, 10^−4.5, 10^−5, 10^−5.5, 10^−6, 10^−7, 10^−8, and 10^−9 M. In some embodiments, assessed concentrations were about 10^−4, 10^−5, 10^−6, 10^−7, 10^−8, and 10^−9 M. In some embodiments, assessed concentrations were about 10^−4, 10^−4.5, 10^−5, 10^−5.5, 10^−6, and 10^−7 M. In some embodiments, assessed concentrations were about 2000000, 1000000, 500000, 250000, 125000, 62500, 31250, 15625, 7813, 3906 nM. […] In some embodiments, assessed concentrations were about 30000, 10000, 3333, 1111, 370, 123, 41, 14, 4.6, 1.5 nM.

[1] = FXR activation, HEK293T FXRE-NanoLuc reporter, 24 hr

Chain of MRGPRX4 (Q96LA9 whole entry): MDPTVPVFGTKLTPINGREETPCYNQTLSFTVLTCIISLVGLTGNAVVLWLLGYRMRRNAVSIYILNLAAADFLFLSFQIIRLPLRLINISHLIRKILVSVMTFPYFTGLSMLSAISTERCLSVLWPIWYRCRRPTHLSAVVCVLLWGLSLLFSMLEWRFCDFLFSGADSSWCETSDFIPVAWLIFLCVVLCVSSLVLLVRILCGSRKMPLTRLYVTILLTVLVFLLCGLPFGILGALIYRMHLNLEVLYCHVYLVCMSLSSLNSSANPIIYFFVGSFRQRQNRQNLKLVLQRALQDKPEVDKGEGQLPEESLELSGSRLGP

Structure (SMILES) | Efficacy (maximum measured induction of NanoLuc, normalized to CDCA set as 100%) (human FXR (NR1H4); [1]) | EC50 (human FXR (NR1H4); [1]) [µM] | other results
CC[C@H]1[C@@H](OC(=O)c2cccc(I)c2)[C@@H]2[C@H](CC[C@@]3(C)[C@H]2CC[C@]3(Cl)[C@H](C)CCC(=O)OC)[C@@]2(C)CCCC[C@@H]12 [1-6] | D (efficacy <=100%) | > 10 | MRGPRX4 activation, fluorescence change (dF/F0), Average (MRGPRX4; Conc. (Log[M]) −4): 0.018; MRGPRX4 activation, fluorescence change (dF/F0), Average (MRGPRX4; Conc. (Log[M]) −4.5): −0.031; MRGPRX4 activation, fluorescence change (dF/F0), Average (MRGPRX4; Conc. (Log[M]) −5): −0.001; MRGPRX4 activation, fluorescence change (dF/F0), Average (MRGPRX4; Conc. (Log[M]) −5.5): −0.012; MRGPRX4 activation, fluorescence change (dF/F0), Average (MRGPRX4; Conc. (Log[M]) −6): −0.006; MRGPRX4 activation, fluorescence change (dF/F0), Average (MRGPRX4; Conc. (Log[M]) −7): −0.001; MRGPRX4 activation, fluorescence change (dF/F0), Average (MRGPRX4; Conc. (Log[M]) −8): 0.001; MRGPRX4 activation, fluorescence change (dF/F0), Average (MRGPRX4; Conc. (Log[M]) −9): −0.014; EC50 (MRGPRX4): > 100 µM
C[C@H](CCCCC(=O)O)[C@H]1CC[C@H]2[C@@H]3CC[C@@H]4C[C@H](O)CC[C@]4(C)[C@H]3CC[C@]12C [compound 84] | B (300%<efficacy <=400%) | 1 to 10 | MRGPRX4 activation, fluorescence change (dF/F0), Average (MRGPRX4; Conc. (Log[M]) −4): 0.287; MRGPRX4 activation, fluorescence change (dF/F0), Average (MRGPRX4; Conc. (Log[M]) −4.5): 0.065; MRGPRX4 activation, fluorescence change (dF/F0), Average (MRGPRX4; Conc. (Log[M]) −5): 0.021; MRGPRX4 activation, fluorescence change (dF/F0), Average (MRGPRX4; Conc. (Log[M]) −5.5): −0.001; MRGPRX4 activation, fluorescence change (dF/F0), Average (MRGPRX4; Conc. (Log[M]) −6): 0.009; MRGPRX4 activation, fluorescence change (dF/F0), Average (MRGPRX4; Conc. (Log[M]) −7): −0.014; MRGPRX4 activation, fluorescence change (dF/F0), Average (MRGPRX4; Conc. (Log[M]) −8): 0.002; MRGPRX4 activation, fluorescence change (dF/F0), Average (MRGPRX4; Conc. (Log[M]) −9): −0.014; EC50 (MRGPRX4): < 50 µM
CC[C@H]1[C@@H](O)[C@@H]2[C@H](CC[C@]3(C)[C@@H]([C@H](C)CCNC(=O)NS(=O)(=O)c4ccc(C(C)(C)C(=O)OC)cc4)CC[C@@H]23)[C@@]2(C)CCCC[C@@H]12 [5-9] | B (300%<efficacy <=400%) | < 1 | –
C[C@H](CCCOC(=O)NS(=O)(=O)c1ccc(C(C)(C)CF)cc1)[C@H]1CC[C@H]2[C@@H]3CC[C@@H]4CCCC[C@]4(C)[C@H]3CC[C@]12C [22-1] | – | 1 to 10 | Efficacy (maximum measured induction of NanoLuc, normalized to CDCA set as 100%) (human FXR (NR1H4)): B (key: A: efficacy >400%; B: 300%<efficacy <=400%; C: 100%<efficacy <=300%; D: efficacy <=100%)
CC[C@H]1[C@@H](O)[C@@H]2[C@H](CC[C@]3(C)[C@@H]([C@H](C)Cc4nnn[nH]4)CC[C@@H]23)[C@@]2(C)CCCC[C@@H]12 [16-2] | C (100%<efficacy <=300%) | < 1 | –
C[C@H](CCC(=O)O)[C@H]1CC[C@H]2[C@@H]3CC[C@@H]4C[C@H](O)CC[C@]4(C)[C@H]3C[C@@H](O)[C@]12C [RC-4] | A (efficacy >400%) | < 1 | –
C[C@H](CCNC(=O)NS(=O)(=O)c1ccc(C(C)(C)CF)cc1)[C@H]1CC[C@H]2[C@@H]3CC[C@@H]4CCCC[C@]4(C)[C@H]3CC[C@]12C [21-1] | – | 1 to 10 | Efficacy (maximum measured induction of NanoLuc, normalized to CDCA set as 100%) (human FXR (NR1H4)): B (key: A: efficacy >400%; B: 300%<efficacy <=400%; C: 100%<efficacy <=300%; D: efficacy <=100%)
CC[C@H]1[C@@H](O)[C@@H]2[C@H](CC[C@]3(C)[C@@H]([C@H](C)CCOC(=O)NS(=O)(=O)c4ccc5c(c4)CCC(C)(C)O5)CC[C@@H]23)[C@@]2(C)CCCC[C@@H]12 [19-1] | B (300%<efficacy <=400%) | < 1 | –
CC[C@H]1[C@@H](O)[C@@H]2[C@H](CC[C@]3(C)[C@@H]([C@H](C)CCc4nnc(NS(=O)(=O)c5ccc6c(c5)OCO6)[nH]4)CC[C@@H]23)[C@@]2(C)CCCC[C@@H]12 [15-3] | C (100%<efficacy <=300%) | 1 to 10 | –
CC[C@H]1[C@@H](O)[C@@H]2[C@H](CC[C@]3(C)[C@@H]([C@H](C)CCNC(=N)NS(=O)(=O)c4cccs4)CC[C@@H]23)[C@@]2(C)CCCC[C@@H]12 [17-2] | B (300%<efficacy <=400%) | < 1 | –
CC[C@H]1[C@@H](O)[C@@H]2[C@H](CC[C@]3(C)[C@@H]([C@H](C)CCOC(=O)NS(=O)(=O)c4ccc(C(C)(C)CF)cc4)CC[C@@H]23)[C@@]2(C)CCCC[C@@H]12 [19-3] | A (efficacy >400%) | < 1 | –
CC[C@H]1[C@@H](O)[C@@H]2[C@H](CC[C@]3(C)[C@@H]([C@H](C)CCC(=O)Nc4nnn[nH]4)CC[C@@H]23)[C@@]2(C)CCCC[C@@H]12 [16-1] | – | 1 to 10 | Efficacy (maximum measured induction of NanoLuc, normalized to CDCA set as 100%) (human FXR (NR1H4)): B (key: A: efficacy >400%; B: 300%<efficacy <=400%; C: 100%<efficacy <=300%; D: efficacy <=100%)
CC[C@H]1[C@@H](O)[C@@H]2[C@H](CC[C@]3(C)[C@@H]([C@H](C)CCNC(=S)NS(=O)(=O)c4cccs4)CC[C@@H]23)[C@@]2(C)CCCC[C@@H]12 [7-3] | – | < 1 | Efficacy (maximum measured induction of NanoLuc, normalized to CDCA set as 100%) (human FXR (NR1H4)): C (key: A: efficacy >400%; B: 300%<efficacy <=400%; C: 100%<efficacy <=300%; D: efficacy <=100%)
CC[C@H]1[C@@H](O)[C@@H]2[C@H](CC[C@]3(C)[C@@H]([C@H](C)CCN)CC[C@@H]23)[C@@]2(C)CCC(F)(F)C[C@@H]12 [11-1] | C (100%<efficacy <=300%) | > 10 | –
CC[C@H]1[C@@H](O)[C@@H]2[C@H](CC[C@]3(C)[C@@H]([C@H](C)CCNC(=O)NS(=O)(=O)C[C@]45CCC(CC4=O)C5(C)C)CC[C@@H]23)[C@@]2(C)CCCC[C@@H]12 [5-27] | A (efficacy >400%) | < 1 | –
CC[C@H]1[C@@H](O)[C@@H]2[C@H](CC[C@]3(C)[C@@H]([C@H](C)CCOC(=O)NS(=O)(=O)c4ccc(N5CCCCC5)nc4)CC[C@@H]23)[C@@]2(C)CCCC[C@@H]12 [19-2] | B (300%<efficacy <=400%) | < 1 | –
CC[C@H]1[C@@H](O)[C@@H]2[C@H](CC[C@]3(C)[C@@H]([C@H](C)CCNC(=O)NS(=O)(=O)c4ccc(C(F)(F)F)cc4)CC[C@@H]23)[C@@]2(C)CCCC[C@@H]12 [5-19] | C (100%<efficacy <=300%) | < 1 | –
